Experimental data as given in patent US11578321B2, “Recombinant HBV reporter system” (Helmholtz Zentrum München Deutsches Forschungszentrum für …, priority 2018, dated 2023).

Assays:
rHBV-CreN [1] = assay: Detection of Cre-lox recombination by PCR in rHBV-CreN infected CreC/CIR cells; format: cell-based, hepatitis B virus; conditions: rHBV-CreN infected CreC/CIR cells treated with MyrB
Procedure: (§1) HepG2-NTCP-CreC/CIR cells were seeded on collagen-coated plates with a density of 1.34×10^3 cells/mm^2 and cultured in DMEM containing 2.5% dimethylsulfoxide (DMSO) for 2 days prior to infection. The inoculum was prepared by diluting the virus in DMEM containing 2.5% DMSO and 4% PEG8000. For blocking rHBV entry, Myrcludex B (200 nM) was added to the rHBV inoculum (Li and Urban, 2016, Cancer research 42, 3858-3863). The cells were inoculated for 24 hours and maintained in DMEM containing 2.5% DMSO for indicated time according to the experimental set-ups.
Genomic DNA of the cells was isolated using NucleoSpin® Tissue Kit (Macherey-Nagel, 740952.250). The Cre-lox recombination was analyzed by PCR using primers flanking the neomycin sequence (forward, 5′-[…]-3′ (SEQ ID NO: 29) and reverse, 5′-GGTACCGTCGACTGCAGAT-3′ (SEQ ID NO: 30)). The PCR was performed with 250 ng of genomic DNA and Phusion® Hot Start Flex DNA Polymerase (New England Biolabs, M0535S). The reaction required the following conditions: 1 cycle of denaturation at 98° C. for 30 seconds, 35 cycles of amplification (98° C. for 10 seconds, 61° C. for 30 seconds, 72° C. for 45 seconds), and 1 cycle of extension at 72° C. for 1 minute. The PCR products were examined by agarose gel electrophoresis.

rHBV-CreN [2] = assay: Western blot of Co-InCre reconstitution and core protein in rHBV-CreN infected CreC/CIR cells; format: cell-based, hepatitis B virus; conditions: rHBV-CreN infected CreC/CIR cells treated with MyrB
Procedure: as §1
Cellular proteins were isolated using RIPA buffer (Pierce, 89900) containing a protease inhibitor cocktail (Roche, 11836153001). The proteins were separated by 12% Sodium dodecyl sulphate-polyacrylamide gel electrophoresis (SDS-PAGE) and subsequently transferred onto a polyvinylidene difluoride (PVDF) membrane (Bio-Rad, 162-0177). The blotted membrane was blocked with 5% milk-TBST (20 mM Tris-HCl, pH7.4, 140 mM NaCl, 1% Tween 20). The antibodies were diluted in 1.5% milk-TBST. For core protein detection, an in-house hybridoma supernatant (8C9) was used in a 1:1 dilution. For Co-InCre detection, an anti-Cre antibody (Merck, 69050) was used in a 1:1000 dilution. […]-Actin (1:5000; Sigma, A5441) was used as a reference protein. […] The chemiluminescent signal was detected by Intas ECL ChemoCam.

rHBV-CreN [3] = assay: HBeAg ELISA of supernatant of rHBV-CreN infected CreC/CIR cells; format: cell-based, hepatitis B virus; conditions: rHBV-CreN MOI=250 with MyrB, day 7 post-infection
Procedure: as §1
The amount of HBeAg in cell-derived supernatants was measured using a commercial qualitative immunoassay—Enzygnost HBe monoclonal (Siemens, OQDM11) and automated BEP III system (Siemens Healthcare).

rHBV-CreN [4] = assay: rHBV-CreN infection of CreC/CIR reporter cells with entry inhibitor, DsRed-positive cells by flow cytometry; format: cell-based, hepatitis B virus
Procedure: as §1, with “For blocking rHBV entry, Myrcludex B (200 nM) was added to the rHBV inoculum (Li and Urban, 2016, Cancer research 42, 3858-3863).” left out
(§2) Cells were collected from 24-well plates using trypsin-versene at a 1:1 ratio (Gibco, 15400-054 and 15040-033). Cell pellets were resuspended in 1 ml of FACS buffer (PBS containing 1% BSA and 0.5 mM EDTA) and incubated with LIVE/DEAD™ Fixable Near-Infrared dead cell stain kit (Invitrogen, L10119). The samples were subjected to CytoFLEX S (Beckman Coulter) and the obtained data was analyzed by FlowJo software (v10, FlowJo LLC.).

[5] = tested on: rHBV-CreN infected HepG2-NTCP-CreC/CIR cells; assay: Negative selection of rHBV-CreN infected cells with Neomycin, flow cytometry; format: cell-based, human; conditions: Neomycin 2 mg/ml for 30 days
Procedure: as §2

Substance | 0.2-kb band (ΔNeo) PCR product (rHBV-CreN [1]) | Co-InCre detection (Western blot) (rHBV-CreN [2]) | core protein detection (Western blot) (rHBV-CreN [2]) | HBeAg level (rHBV-CreN [3]) | number of DsRed-positive cells (rHBV-CreN [4]; CreC/CIR cells, rHBV-CreN MOI=250, MyrB added to the inoculum, day 7 post-infection, FACS) | percentage of DsRed-positive cells (rHBV-CreN [4]; HepG2-NTCP-CreC/CIR cells, rHBV-CreN MOI=300 virions/cell, Myrcludex B 200 nM, 10 days post infection, flow cytometry) | reduction of the number of DsRed-positive cells compared to untreated group [5]
Myrcludex-B [MyrB] | absent | not detected | not detected | comparable to that of the mock sample | less than 1% | less than 1% | 
Neomycin |  |  |  |  |  |  | 3.6 fold
